Patent publication US4049495A, “Physiologically active substances and fermentative process for producing the same” (Sankyo Company Limited, priority 1974, dated 1977)
Values after ≈ are worked out from the molar mass of the structure shown.

Legend:
[1] = tested on: cholesterol levels in blood and liver; assay: lowering of cholesterol in blood and liver of Triton WR 1339-treated rats; type: in vivo; settings: 20 mg./kg. intraperitoneal, with Triton WR 1339 200 mg./kg. i.v., 24 hours, vs Triton alone
Method: 1. One of two groups of rats having an average weight of about 200 g., each group consisting of 5 animals, was individually given by intraveneous injection with 200 mg./kg. of Triton WR 1339 (trade name; available from Ruger Chemical Co., Ltd., U.S.A.; having an activity of increasing cholesterol level in blood) simultaneously with intraperitoneal administration of 20 mg./kg. of ML-236B. After 24 hours from administration, rats were sacrificed by bleeding, blood and liver were collected and their cholesterol and neutral lipid levels were determined by a conventional method.

[2] = tested on: cholesterol and neutral lipid levels in blood serum; assay: lowering of cholesterol and neutral lipid in blood serum of rats, oral ML-236B in physiological saline; type: in vivo; settings: 80 mg./kg. powdery in physiological saline solution, vs saline
Method: Moreover, one of two other groups of rats, each group consisting of 5 animals, were orally given 80 mg./kg. of powdery ML-236B in the form of a physiological saline solution. After 3 hours from administration, cholesterol and neutral lipid levels in blood serum were determined in the same manner as above.

[3] = tested on: cholesterol biosynthesis; assay: inhibition of cholesterol biosynthesis in vitro (rat liver slice, radioactive acetic acid); type: cell-based; settings: 1 h, 37° C., 60 minutes, read-out: concentration exhibiting about 50% inhibition of cholesterol biosynthesis
Method: I. The activity in vitro on inhibition of cholesterol biosynthesis of the substances ML-236 may be assayed by the following method. Slice of rat liver and radioactive acetic acid are brought to interaction at 37° C. for 60 minutes, the radioactive cholesterol thus biosynthesized is saponified and separated as precipitates with digitonin and then its radioactivity is measured to determine the produced cholesterol amount. Separately, the same procedures as above are employed except that ML-236 is added at the beginning of the reaction, thereby the biosynthesized cholesterol amount being determined. Thus, an effect of ML-236 can be quantitively determined. (See Bricker et al.: The Journal of Biological Chemistry, 247, 4914, 1972).

[4] = solubility in organic solvents; type: physicochemical
[5] = tested on: cholesterol and neutral lipid levels in blood serum; assay: lowering of cholesterol and neutral lipid in blood serum of rats, oral ML-236A in gum arabic; type: in vivo; settings: 5 mg./kg. in gum arabic, vs gum arabic alone
Method: 2. Two of four groups of rats, each group consisting of 5 animals, were orally given one dose of 5 mg./kg. of ML-236A suspended in gum arabic. After 3 hours and 18 hours from administration, animals were sacrificed by bleeding and blood was collected. Cholesterol and neutral lipid levels in blood serum were determined by a conventional method.

[6] = in methanol, ethanol, acetone, ethyl acetate, chloroform and benzene
[7] = in n-hexane and petroleum ether

| Structure (SMILES) | lowering of cholesterol level in blood [1] [%] | lowering of cholesterol level in liver [1] [%] | lowering of cholesterol level in blood serum after 3 hours [2] [%] | lowering of neutral lipid level in blood serum after 3 hours [2] [%] | IC50 [3] [µg/mL] | Solubility [4, 6] | Solubility [4, 7] | lowering of cholesterol level in blood serum after 3 hours ([5]; 3 hours) [%] | lowering of neutral lipid level in blood serum after 3 hours ([5]; 3 hours) [%] | lowering of cholesterol level in blood serum after 18 hours ([5]; 18 hours) [%] | lowering of neutral lipid level in blood serum after 18 hours ([5]; 18 hours) |
| --- | --- | --- | --- | --- | --- | --- | --- | --- | --- | --- | --- |
| CCC(C)C(=O)OC1CCC=C2C=CC(C)C(CCC3CC(O)CC(=O)O3)C21 (centres unmarked) [ML-236B] | 14.2 | 10.1 | 20.0 | 44.2 | ~0.01 (≈ 0.0256 µM) | Soluble | Insoluble |  |  |  |  |
| CC1C=CC2=CCCCC2C1CCC1CC(O)CC(=O)O1 (centres unmarked) [ML-236C] |  |  |  |  | ~0.08 (≈ 0.275 µM) | Soluble | Insoluble |  |  |  |  |
| CC1C=CC2=CCCC(O)C2C1CCC1CC(O)CC(=O)O1 (centres unmarked) [ML-236A] |  |  |  |  | ~0.04 (≈ 0.131 µM) | Soluble | Insoluble | 13.5 | 49.5 | 13.5 | not observed |
